Reference: PubChem BioAssay AID1259411 (Chemical Carcinogenesis Research Information System (CCRIS), 2018)
The source made the active and inactive calls. How the calls were made is not given here.

Tested on: rodent carcinogenicity bioassays, tumor incidence
Assay: CCRIS carcinogenicity studies
Method in brief: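 NCI-built, expert-reviewed records of carcinogenicity and related test outcomes (mutagenicity, tumor promotion/inhibition) compiled from published and report sources, historical span 1985-2011, not updated.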

[1] = Species: MOUSE, Route: DERMAL, Tumor Site: Type of Lesion: INTEGUMENTARY SYSTEM (SKIN)

**Q.** Which carcinogen call (Species: DOG, Strain/Sex: BEAGLE/FEMALE, Route: ORAL, Dose: 0, 30, 100, 400 MG/KG/D IN DIET FOR 52 WK (STUDY DURATION: 52 WK), Dose: 0, 30, 100, 400 MG/KG/D IN DIET FOR 52 WK (STUDY DURATION: 52 WK)) does the source give for CCN(CC)C(=O)c1cccc(C)c1 here?
**A.** inactive; negative

**Q.** What about the carcinogen call (Species: DOG, Strain/Sex: BEAGLE/MALE, Route: ORAL, Dose: 0, 30, 100, 400 MG/KG/D IN DIET FOR 52 WK (STUDY DURATION: 52 WK), Dose: 0, 30, 100, 400 MG/KG/D IN DIET FOR 52 WK (STUDY DURATION: 52 WK)) of the same molecule?
**A.** inactive; negative

**Q.** What about the carcinogen call (Species: MOUSE, Strain/Sex: CD-1/MALE, Route: ORAL, Dose: 0, 250, 500, 1000 MG/KG/D IN DIET FOR 78 WK (STUDY DURATION: 78 WK), Dose: 0, 250, 500, 1000 MG/KG/D IN DIET FOR 78 WK (STUDY DURATION: 78 WK)) of the same molecule?
**A.** inactive; negative

**Q.** What about the carcinogen call (Species: Mouse, Strain/Sex: CD-1/Female (60/Group), Route: Oral, Dose: 0, 250, 500, 1000 mg/kg in diet for 78 wk, Dose: 0, 250, 500, 1000 mg/kg in diet for 78 wk) of the same molecule?
**A.** inactive; negative

**Q.** What about the carcinogen call (Species: Mouse, Strain/Sex: CD-1/Male (60/Group), Route: Oral, Dose: 0, 250, 500, 1000 mg/kg in diet for 78 wk, Dose: 0, 250, 500, 1000 mg/kg in diet for 78 wk) of the same molecule?
**A.** inactive; negative

**Q.** What about the carcinogen call (Species: RAT, Strain/Sex: CD-1/FEMALE, Route: ORAL, Dose: 0, 250, 500, 1000 MG/KG/D IN DIET FOR 78 WK (STUDY DURATION: 78 WK), Dose: 0, 250, 500, 1000 MG/KG/D IN DIET FOR 78 WK (STUDY DURATION: 78 WK)) of the same molecule?
**A.** inactive; negative

**Q.** And the carcinogen call (Species: RAT, Strain/Sex: CD/FEMALE, Route: ORAL, Dose: 0, 30, 100, 400 MG/KG/D IN DIET FOR 104 WK (STUDY DURATION: 104 WK), Dose: 0, 30, 100, 400 MG/KG/D IN DIET FOR 104 WK (STUDY DURATION: 104 WK))?
**A.** inactive; negative

**Q.** And the carcinogen call (Species: RAT, Strain/Sex: CD/MALE, Route: ORAL, Dose: 0, 10, 30, 100 MG/KG/D IN DIET FOR 104 WK (STUDY DURATION: 104 WK), Dose: 0, 10, 30, 100 MG/KG/D IN DIET FOR 104 WK (STUDY DURATION: 104 WK))?
**A.** inactive; negative

**Q.** What about the carcinogen call (Species: Rat, Strain/Sex: Charles River CD/Female (60/Group), Route: Oral, Dose: 0, 10, 30, 100 mg/kg in diet for 2 yr, Dose: 0, 10, 30, 100 mg/kg in diet for 2 yr) of the same molecule?
**A.** inactive; negative

**Q.** What about the carcinogen call (Species: Rat, Strain/Sex: Charles River CD/Male (60/Group), Route: Oral, Dose: 0, 10, 30, 100 mg/kg in diet for 2 yr, Dose: 0, 10, 30, 100 mg/kg in diet for 2 yr) of the same molecule?
**A.** inactive; negative

**Q.** c1cc2ccc3cc4cccc5ccc6cc(c1)c2c3c6c54 was tested. Which carcinogen call [1] did it give?
**A.** active; positive

**Q.** What about the carcinogen call (Species: RAT, Strain/Sex: OSBORNE-MENDEL/FEMALE, Route: LUNG IMPLANT, Dose: 0, 0.16, 0.83 MG IN BEESWAX/TRIOCTANOIN (STUDY DURATION: LIFETIME), Dose: 0, 0.16, 0.83 MG IN BEESWAX/TRIOCTANOIN (STUDY DURATION: LIFETIME), Tumor Site: Type of Lesion: LUNG: EPIDERMOID CARCINOMA) of the same molecule?
**A.** active; positive

**Q.** Which results are given for c1ccc2cc3c(cc2c1)-c1cccc2cccc-3c12?
**A.** carcinogen call [1]: active; positive; carcinogen call (Species: RAT, Strain/Sex: OSBORNE-MENDEL/FEMALE, Route: LUNG IMPLANT, Dose: 0, 0.16, 0.83, 4.15 MG IN BEESWAX/TRIOCTANOIN (STUDY DURATION: LIFETIME), Dose: 0, 0.16, 0.83, 4.15 MG IN BEESWAX/TRIOCTANOIN (STUDY DURATION: LIFETIME), Tumor Site: Type of Lesion: LUNG: EPIDERMOID CARCINOMA): active; positive

**Q.** Which results are given for COC(=O)C1=C(C)NC(C)=C(C(=O)OCCc2ccc(N3CCN(C(c4ccccc4)c4ccccc4)CC3)cc2)C1c1cccc([N+](=O)[O-])c1 (stereo not drawn)?
**A.** carcinogen call (Species: MOUSE, Strain/Sex: B6C3F1/FEMALE, Route: ORAL, Dose: 0, 30, 90, 300 PPM IN DIET FOR 18 MO (STUDY DURATION: 18 MO), Dose: 0, 30, 90, 300 PPM IN DIET FOR 18 MO (STUDY DURATION: 18 MO)): inactive; negative; carcinogen call (Species: MOUSE, Strain/Sex: B6C3F1/MALE, Route: ORAL, Dose: 0, 30, 90, 300 PPM IN DIET FOR 18 MO (STUDY DURATION: 18 MO), Dose: 0, 30, 90, 300 PPM IN DIET FOR 18 MO (STUDY DURATION: 18 MO)): inactive; negative; carcinogen call (Species: RAT, Strain/Sex: F344/FEMALE, Route: ORAL, Dose: 0, 30, 90, 300 PPM IN DIET FOR 24 MO (STUDY DURATION: 24 MO), Dose: 0, 30, 90, 300 PPM IN DIET FOR 24 MO (STUDY DURATION: 24 MO)): inactive; negative; carcinogen call (Species: RAT, Strain/Sex: F344/MALE, Route: ORAL, Dose: 0, 30, 90, 300 PPM IN DIET FOR 24 MO (STUDY DURATION: 24 MO), Dose: 0, 30, 90, 300 PPM IN DIET FOR 24 MO (STUDY DURATION: 24 MO)): inactive; negative
